Source: article PMC10175918 (Communications Biology, 2023)
Where two headings read alike, the source gives them in different places.

Experiments:
Test in all cases: TGFα-shedding assay-based GPCR screening with chimeric Gα subunit proteins
Format in all cases: cell-based
348 GPCRs [1] = target: T1, 348 GPCRs (Homo sapiens, UniProt Q9Y5N1); details: 10µM, Favipiravir 100μM
T1 construct: expressed in transfected cells; host or cells: HEK293A

348 GPCRs [2] = target: T2, 348 GPCRs (Homo sapiens, UniProt P41594); details: 10µM, Favipiravir 100μM
T2 construct: expressed in transfected cells; host or cells: HEK293A
T2 sequence (P41594 21-1212): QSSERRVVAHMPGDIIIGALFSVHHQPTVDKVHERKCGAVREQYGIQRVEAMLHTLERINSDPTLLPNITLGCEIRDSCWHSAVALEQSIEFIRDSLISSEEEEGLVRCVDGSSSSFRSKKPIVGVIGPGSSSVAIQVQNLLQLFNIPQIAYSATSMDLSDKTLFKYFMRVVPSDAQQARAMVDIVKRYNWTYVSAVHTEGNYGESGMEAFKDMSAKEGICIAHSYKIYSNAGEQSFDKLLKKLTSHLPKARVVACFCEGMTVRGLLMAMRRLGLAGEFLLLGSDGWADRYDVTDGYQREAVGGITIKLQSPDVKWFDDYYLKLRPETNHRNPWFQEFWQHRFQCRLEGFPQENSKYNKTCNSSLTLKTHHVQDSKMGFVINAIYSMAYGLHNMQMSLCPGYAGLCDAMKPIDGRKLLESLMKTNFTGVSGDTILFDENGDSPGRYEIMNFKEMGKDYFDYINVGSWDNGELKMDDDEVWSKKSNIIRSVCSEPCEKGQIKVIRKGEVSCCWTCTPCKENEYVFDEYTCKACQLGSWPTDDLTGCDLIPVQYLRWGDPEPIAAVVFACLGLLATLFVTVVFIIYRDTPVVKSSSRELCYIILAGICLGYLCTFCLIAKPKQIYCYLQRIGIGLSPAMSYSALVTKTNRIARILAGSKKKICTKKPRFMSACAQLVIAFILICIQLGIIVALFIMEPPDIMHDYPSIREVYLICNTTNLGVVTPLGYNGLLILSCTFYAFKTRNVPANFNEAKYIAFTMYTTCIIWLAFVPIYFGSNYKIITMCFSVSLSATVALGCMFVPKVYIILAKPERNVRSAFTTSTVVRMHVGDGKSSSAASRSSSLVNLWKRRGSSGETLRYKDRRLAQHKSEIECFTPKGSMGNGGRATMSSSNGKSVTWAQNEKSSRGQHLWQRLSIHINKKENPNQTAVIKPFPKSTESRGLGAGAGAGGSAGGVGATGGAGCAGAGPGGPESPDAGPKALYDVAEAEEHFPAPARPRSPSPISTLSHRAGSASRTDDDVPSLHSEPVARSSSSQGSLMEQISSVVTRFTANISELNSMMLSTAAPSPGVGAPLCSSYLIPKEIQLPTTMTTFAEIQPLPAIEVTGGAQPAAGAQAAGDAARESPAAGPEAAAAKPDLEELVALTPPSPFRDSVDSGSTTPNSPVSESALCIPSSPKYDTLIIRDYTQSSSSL

348 GPCRs [3] = target: 348 GPCRs (Homo sapiens, UniProt P51681); details: 10µM, Favipiravir 100μM
348 GPCRs (Homo sapiens, UniProt P51681), sequence (P51681 whole entry): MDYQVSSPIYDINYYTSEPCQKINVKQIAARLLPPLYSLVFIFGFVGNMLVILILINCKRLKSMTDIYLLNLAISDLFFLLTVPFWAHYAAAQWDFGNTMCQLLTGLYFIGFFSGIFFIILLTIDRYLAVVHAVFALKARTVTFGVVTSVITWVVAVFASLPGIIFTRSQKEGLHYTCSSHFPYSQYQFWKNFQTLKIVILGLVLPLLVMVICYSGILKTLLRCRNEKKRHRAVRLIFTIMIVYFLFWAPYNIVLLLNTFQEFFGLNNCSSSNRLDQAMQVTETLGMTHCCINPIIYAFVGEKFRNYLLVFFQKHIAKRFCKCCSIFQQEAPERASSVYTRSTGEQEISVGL

348 GPCRs [4] = target: T3, 348 GPCRs (Homo sapiens, UniProt P0DMS8); details: 10µM, Favipiravir 100μM
T3 construct: expressed in transfected cells; host or cells: HEK293A
T3 sequence (P0DMS8 1-318): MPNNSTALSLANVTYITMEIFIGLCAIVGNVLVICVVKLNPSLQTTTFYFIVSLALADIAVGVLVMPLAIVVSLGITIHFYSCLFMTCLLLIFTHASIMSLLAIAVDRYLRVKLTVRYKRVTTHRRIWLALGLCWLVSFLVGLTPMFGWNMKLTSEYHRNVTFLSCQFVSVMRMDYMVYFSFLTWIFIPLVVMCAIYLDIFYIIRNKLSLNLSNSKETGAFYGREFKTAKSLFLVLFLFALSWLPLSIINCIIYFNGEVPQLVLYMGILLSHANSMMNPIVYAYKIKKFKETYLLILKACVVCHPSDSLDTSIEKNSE

348 GPCRs [5] = target: T4, 348 GPCRs (Homo sapiens, UniProt Q03431); details: 10µM, Favipiravir 100μM
T4 sequence (Q03431 27-593): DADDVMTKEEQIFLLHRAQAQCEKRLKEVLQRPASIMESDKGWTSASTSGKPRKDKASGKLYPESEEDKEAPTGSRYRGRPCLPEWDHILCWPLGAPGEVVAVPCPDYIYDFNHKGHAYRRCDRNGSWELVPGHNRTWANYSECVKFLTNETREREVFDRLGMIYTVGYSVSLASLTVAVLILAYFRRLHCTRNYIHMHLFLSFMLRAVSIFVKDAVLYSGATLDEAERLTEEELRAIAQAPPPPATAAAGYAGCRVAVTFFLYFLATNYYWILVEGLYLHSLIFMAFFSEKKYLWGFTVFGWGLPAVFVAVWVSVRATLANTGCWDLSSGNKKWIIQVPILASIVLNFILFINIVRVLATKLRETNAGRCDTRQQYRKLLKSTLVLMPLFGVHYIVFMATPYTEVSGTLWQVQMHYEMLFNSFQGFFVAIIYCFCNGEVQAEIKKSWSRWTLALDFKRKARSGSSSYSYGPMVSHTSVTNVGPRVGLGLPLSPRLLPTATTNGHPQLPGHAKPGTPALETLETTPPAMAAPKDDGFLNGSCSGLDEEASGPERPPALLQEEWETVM

348 GPCRs [6] = target: T5, 348 GPCRs (Homo sapiens, UniProt Q9Y3P9); details: 10µM, Favipiravir 100μM
T5 construct: expressed in transfected cells; host or cells: HEK293A
T5 sequence (Q9Y3P9 whole entry): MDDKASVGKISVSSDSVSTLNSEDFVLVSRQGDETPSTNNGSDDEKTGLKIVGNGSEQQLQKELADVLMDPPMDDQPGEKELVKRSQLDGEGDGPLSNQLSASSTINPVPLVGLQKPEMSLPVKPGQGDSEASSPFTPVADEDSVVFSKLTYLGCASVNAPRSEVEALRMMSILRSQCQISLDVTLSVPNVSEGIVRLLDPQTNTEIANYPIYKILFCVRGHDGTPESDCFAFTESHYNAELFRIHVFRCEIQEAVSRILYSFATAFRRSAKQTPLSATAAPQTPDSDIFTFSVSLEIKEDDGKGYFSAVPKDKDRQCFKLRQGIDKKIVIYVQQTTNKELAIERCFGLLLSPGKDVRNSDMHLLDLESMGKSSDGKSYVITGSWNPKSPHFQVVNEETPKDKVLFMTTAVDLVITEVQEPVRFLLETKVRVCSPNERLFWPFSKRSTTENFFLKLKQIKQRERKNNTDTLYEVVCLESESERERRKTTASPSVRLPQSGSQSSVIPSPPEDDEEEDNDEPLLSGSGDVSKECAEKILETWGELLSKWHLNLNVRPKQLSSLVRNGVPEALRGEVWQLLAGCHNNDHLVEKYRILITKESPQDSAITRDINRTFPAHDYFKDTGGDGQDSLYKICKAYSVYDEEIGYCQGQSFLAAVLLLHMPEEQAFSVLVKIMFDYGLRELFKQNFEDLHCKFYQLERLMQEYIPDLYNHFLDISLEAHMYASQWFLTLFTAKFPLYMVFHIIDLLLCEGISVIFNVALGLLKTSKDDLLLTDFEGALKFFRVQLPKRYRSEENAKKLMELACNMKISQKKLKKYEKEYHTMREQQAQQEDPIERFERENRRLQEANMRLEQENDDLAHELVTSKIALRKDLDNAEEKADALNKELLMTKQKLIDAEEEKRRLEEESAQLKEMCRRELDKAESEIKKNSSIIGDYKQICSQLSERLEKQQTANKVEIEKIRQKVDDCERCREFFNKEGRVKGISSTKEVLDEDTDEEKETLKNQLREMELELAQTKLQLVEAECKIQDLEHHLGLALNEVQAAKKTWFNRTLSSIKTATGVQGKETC

348 GPCRs [7] = target: T6, 348 GPCRs (Homo sapiens, UniProt Q49SQ1); details: 10µM, Favipiravir 100μM
T6 construct: expressed in transfected cells; host or cells: HEK293A
T6 sequence (Q49SQ1 1-333): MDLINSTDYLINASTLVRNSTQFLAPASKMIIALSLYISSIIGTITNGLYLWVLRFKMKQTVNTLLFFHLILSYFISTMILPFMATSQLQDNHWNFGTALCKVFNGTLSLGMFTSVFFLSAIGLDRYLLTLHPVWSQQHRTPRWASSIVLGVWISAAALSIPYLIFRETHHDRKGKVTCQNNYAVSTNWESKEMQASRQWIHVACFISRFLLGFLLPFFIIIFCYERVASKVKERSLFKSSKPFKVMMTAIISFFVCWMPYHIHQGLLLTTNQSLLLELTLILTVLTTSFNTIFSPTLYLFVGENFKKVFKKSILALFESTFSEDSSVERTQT

348 GPCRs [8] = target: T7, 348 GPCRs (Homo sapiens, UniProt Q16602); details: 10µM, Favipiravir 100μM
T7 construct: expressed in transfected cells; host or cells: HEK293A
T7 sequence (Q16602 23-461): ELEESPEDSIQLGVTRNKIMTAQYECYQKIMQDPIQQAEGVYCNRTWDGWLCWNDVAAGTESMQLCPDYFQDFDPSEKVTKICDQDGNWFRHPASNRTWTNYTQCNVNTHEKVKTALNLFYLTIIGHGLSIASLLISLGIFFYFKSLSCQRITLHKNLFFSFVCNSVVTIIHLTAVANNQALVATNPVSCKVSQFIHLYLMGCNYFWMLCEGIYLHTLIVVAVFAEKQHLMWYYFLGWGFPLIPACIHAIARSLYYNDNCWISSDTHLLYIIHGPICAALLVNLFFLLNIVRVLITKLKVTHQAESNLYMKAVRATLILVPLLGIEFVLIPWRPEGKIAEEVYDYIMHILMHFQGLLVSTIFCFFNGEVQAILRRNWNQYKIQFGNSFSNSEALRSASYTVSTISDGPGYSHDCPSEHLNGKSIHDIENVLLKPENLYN

348 GPCRs [9] = target: T8, 348 GPCRs (Homo sapiens, UniProt P34998)
T8 construct: expressed in transfected cells; host or cells: HEK293A
T8 sequence (P34998 24-415): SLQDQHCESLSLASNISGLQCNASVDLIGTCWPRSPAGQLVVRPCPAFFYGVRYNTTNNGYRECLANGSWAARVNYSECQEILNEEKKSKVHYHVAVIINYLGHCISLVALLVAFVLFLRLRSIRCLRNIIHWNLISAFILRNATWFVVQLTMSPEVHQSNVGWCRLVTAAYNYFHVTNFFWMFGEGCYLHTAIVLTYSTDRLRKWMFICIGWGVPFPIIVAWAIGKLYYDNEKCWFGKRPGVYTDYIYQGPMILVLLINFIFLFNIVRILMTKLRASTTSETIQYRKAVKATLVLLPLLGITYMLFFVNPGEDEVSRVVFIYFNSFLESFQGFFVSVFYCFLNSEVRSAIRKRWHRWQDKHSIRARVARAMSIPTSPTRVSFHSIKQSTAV

[10] = H3 (histamine receptor H3), read-out: % GPCR activation compared to TPA
[11] = GRM5 (glutamate receptor, metabotropic 5), read-out: % GPCR activation compared to TPA
[12] = CCR5, CCR5 (C-C motif chemokine receptor 5), read-out: % GPCR activation compared to TPA
[13] = ADORA3 (adenosine A3 receptor), read-out: % GPCR activation compared to TPA
[14] = PTH1R (parathyroid hormone 1 receptor), read-out: % GPCR activation compared to TPA
[15] = RABGAP1 (Rab GTPase-activating protein 1), read-out: % GPCR activation compared to TPA
[16] = GPR33 (G protein-coupled receptor 33), read-out: % GPCR activation compared to TPA
[17] = CALCRL (calcitonin receptor-like receptor), read-out: % GPCR activation compared to TPA
[18] = GPCR CRHR1 (corticotropin releasing hormone receptor 1), read-out: % GPCR activation compared to TPA
[19] = read-out: % GPCR activation compared to TPA, H3 (histamine receptor H3)
[20] = read-out: % GPCR activation compared to TPA, GRM5 (glutamate receptor, metabotropic 5)
[21] = CCR5, read-out: % GPCR activation compared to TPA, CCR5 (C-C motif chemokine receptor 5)
[22] = read-out: % GPCR activation compared to TPA, ADORA3 (adenosine A3 receptor)
[23] = read-out: % GPCR activation compared to TPA, PTH1R (parathyroid hormone 1 receptor)
[24] = read-out: % GPCR activation compared to TPA, RABGAP1 (Rab GTPase-activating protein 1)
[25] = read-out: % GPCR activation compared to TPA, GPR33 (G protein-coupled receptor 33)
[26] = read-out: % GPCR activation compared to TPA, CALCRL (calcitonin receptor-like receptor)
[27] = read-out: % GPCR activation compared to TPA, GPCR CRHR1 (corticotropin releasing hormone receptor 1)

T1 sequence (Q9Y5N1 whole entry): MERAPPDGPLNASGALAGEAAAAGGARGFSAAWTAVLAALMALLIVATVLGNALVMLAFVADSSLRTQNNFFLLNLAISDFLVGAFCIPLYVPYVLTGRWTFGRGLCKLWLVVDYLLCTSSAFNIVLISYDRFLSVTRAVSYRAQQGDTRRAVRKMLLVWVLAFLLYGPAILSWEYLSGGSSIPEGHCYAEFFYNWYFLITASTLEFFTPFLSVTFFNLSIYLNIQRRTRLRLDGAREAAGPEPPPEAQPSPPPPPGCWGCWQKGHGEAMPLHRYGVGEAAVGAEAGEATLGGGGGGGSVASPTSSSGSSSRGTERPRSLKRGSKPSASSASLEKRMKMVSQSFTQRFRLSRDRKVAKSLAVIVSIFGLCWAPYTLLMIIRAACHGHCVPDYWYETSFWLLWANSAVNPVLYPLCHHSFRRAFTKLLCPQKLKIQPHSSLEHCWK

| SMILES | activation at 100 µM (348 GPCRs [1]; [10]) | activation at 10 µM (348 GPCRs [2]; [11]) | activation at 10 µM (348 GPCRs [3]; [12]) | activation at 10 µM (348 GPCRs [4]; [13]) | activation at 100 µM (348 GPCRs [5]; [14]) | activation at 100 µM (348 GPCRs [6]; [15]) | activation at 10 µM (348 GPCRs [7]; [16]) | activation at 100 µM (348 GPCRs [8]; [17]) | activation at 10 µM (348 GPCRs [9]; [18]) | activation at 100 µM (348 GPCRs [1]; [19]) | activation at 10 µM (348 GPCRs [2]; [20]) | activation at 10 µM (348 GPCRs [3]; [21]) | activation at 10 µM (348 GPCRs [4]; [22]) | activation at 100 µM (348 GPCRs [5]; [23]) | activation at 100 µM (348 GPCRs [6]; [24]) | activation at 10 µM (348 GPCRs [7]; [25]) | activation at 100 µM (348 GPCRs [8]; [26]) | activation at 10 µM (348 GPCRs [9]; [27]) | activation at 100 µM (348 GPCRs [9]; GPCR CRHR1 (corticotropin releasing hormone receptor 1), 100μM, read-out: % GPCR activation compared to TPA) |
| --- | --- | --- | --- | --- | --- | --- | --- | --- | --- | --- | --- | --- | --- | --- | --- | --- | --- | --- | --- |
| N#C[C@@]1(c2ccc3c(N)ncnn23)O[C@H](CO)[C@@H](O)[C@H]1O [GS441524] | 0.59% | 1.65% | -0.436% | 2.73% | -0.479% | -1.83% | 3.02% | 0.376% | 0.467% | – | – | – | – | – | – | – | – | – | – |
| CC(C)OC(=O)[C@H](C)N[P@](=O)(OC[C@H]1O[C@@H](n2ccc(=O)[nH]c2=O)[C@](C)(F)[C@@H]1O)Oc1ccccc1 [sofosbuvir] | – | – | – | – | – | – | – | – | – | -2.02% | 3.55% | -0.363% | -1.59% | 1.23% | -1.28% | -2.13% | -3.04% | 1.15% | – |
| CCC(CC)COC(=O)[C@H](C)N[P@](=O)(OC[C@H]1O[C@@](C#N)(c2ccc3c(N)ncnn23)[C@H](O)[C@@H]1O)Oc1ccccc1 [remdesivir] | – | – | – | – | – | – | – | – | – | 0.0878% | 2.34% | 2.38% | 5.91% | 0.414% | -0.577% | 2.55% | 4.11% | 2.05% | – |
| CC(C)C(=O)OC[C@H]1O[C@@H](n2ccc(NO)nc2=O)[C@H](O)[C@@H]1O [molnupiravir] | -0.295% | 0.891% | -2.34% | -0.751% | -0.633% | -0.481% | -3.96% | -2.18% | 1.11% | – | – | – | – | – | – | – | – | – | – |
| NC(=O)c1nc(F)cnc1O [favipiravir, 6-fluoro-3-hydroxy-2-pyrazinecarboxamide] | 0.315% | 0.818% | 1.19% | 2.09% | -0.775% | -1.48% | -0.127% | -7.08% | – | – | – | – | – | – | – | – | – | – | -0.37% |
